The record followed here is patent US10039753B2, “Imidazo[4,5-c]quinoline and imidazo[4,5-c][1,5]naphthyridine derivatives as LRRK2 inhibitors” (Pfizer Inc., priority 2015, dated 2018).

One assay addresses mutant G2019S LRRK2 (Homo sapiens, UniProt Q5S007, G2019S). In words: LRRK2 Assay, Format 1 (Lantha Screen), G2019S mutant.
For assay [1], the target named is T1, GST-tagged truncated LRRK2 (Homo sapiens, UniProt Q5S007).
T1 construct: GST-tagged truncated LRRK2 from Invitrogen (Cat # PV4874); GST; purchased Invitrogen PV4874
In words: LRRK2 Assay, Format 1 (Lantha Screen), WT. To be noted: for IC50: Format 1, wild-type LRRK2, geometric mean of 2-4 determinations unless footnoted (a: ≥5 determinations; b: single determination; c: determined on trifluoroacetate salt). The format is biochemical. The essentials: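 Kinase activity measured by TR-FRET: GST-tagged truncated LRRK2 (4 μg/mL working solution) reacted with fluorescein-labeled LRRKtide (ERM-based peptide) across a compound dose response for 2 h at room temperature. Reaction stopped with EDTA-containing detection buffer (20 mM Tris pH 7.6) holding 2 nM terbium anti-phospho-ERM antibody.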

Where a name gives a salt, the structure may show the parent alone.

mutant G2019S LRRK2, sequence (Q5S007 970-2527 G2019S limits assumed): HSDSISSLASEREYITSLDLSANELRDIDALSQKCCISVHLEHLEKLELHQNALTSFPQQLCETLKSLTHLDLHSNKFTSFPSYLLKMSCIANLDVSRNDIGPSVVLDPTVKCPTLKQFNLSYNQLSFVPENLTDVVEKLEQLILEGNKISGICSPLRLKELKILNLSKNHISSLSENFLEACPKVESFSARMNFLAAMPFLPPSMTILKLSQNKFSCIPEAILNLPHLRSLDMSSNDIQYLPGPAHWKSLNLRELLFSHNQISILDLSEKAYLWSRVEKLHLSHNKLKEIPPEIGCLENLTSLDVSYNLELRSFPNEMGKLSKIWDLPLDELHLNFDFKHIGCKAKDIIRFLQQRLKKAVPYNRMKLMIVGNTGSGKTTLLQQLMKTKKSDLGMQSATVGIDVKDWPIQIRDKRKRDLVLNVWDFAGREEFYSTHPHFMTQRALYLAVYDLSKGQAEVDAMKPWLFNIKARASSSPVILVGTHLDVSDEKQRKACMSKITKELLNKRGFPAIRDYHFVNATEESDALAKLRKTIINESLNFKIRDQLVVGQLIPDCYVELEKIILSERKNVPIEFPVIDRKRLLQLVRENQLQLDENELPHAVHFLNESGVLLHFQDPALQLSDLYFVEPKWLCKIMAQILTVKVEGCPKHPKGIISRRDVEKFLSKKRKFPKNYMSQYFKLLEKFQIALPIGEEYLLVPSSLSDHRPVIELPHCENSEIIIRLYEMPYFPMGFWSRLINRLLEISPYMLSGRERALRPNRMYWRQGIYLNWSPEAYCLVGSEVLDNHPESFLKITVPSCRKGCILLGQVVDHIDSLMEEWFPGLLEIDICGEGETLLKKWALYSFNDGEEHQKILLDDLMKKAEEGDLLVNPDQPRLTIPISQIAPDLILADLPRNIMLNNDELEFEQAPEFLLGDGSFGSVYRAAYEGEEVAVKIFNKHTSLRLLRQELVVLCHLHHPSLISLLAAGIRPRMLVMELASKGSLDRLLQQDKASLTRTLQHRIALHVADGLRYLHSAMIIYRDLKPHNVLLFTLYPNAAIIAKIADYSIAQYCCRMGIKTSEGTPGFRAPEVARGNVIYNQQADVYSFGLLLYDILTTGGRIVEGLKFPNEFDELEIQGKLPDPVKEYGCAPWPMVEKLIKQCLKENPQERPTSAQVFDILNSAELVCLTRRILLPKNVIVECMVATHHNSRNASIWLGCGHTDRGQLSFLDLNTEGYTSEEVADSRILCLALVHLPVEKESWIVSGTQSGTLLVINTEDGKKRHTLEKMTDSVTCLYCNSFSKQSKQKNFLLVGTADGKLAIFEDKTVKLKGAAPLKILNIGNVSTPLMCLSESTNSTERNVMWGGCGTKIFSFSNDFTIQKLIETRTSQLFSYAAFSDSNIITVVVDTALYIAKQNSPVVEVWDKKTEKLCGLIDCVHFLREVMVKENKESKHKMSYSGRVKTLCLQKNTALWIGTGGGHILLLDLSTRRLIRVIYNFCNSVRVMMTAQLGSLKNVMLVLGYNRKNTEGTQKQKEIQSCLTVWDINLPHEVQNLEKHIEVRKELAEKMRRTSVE
T1 sequence (Q5S007 970-2527 limits assumed): as the sequence (Q5S007 970-2527 G2019S limits assumed) above, with S1050G counted along it

What is called IC50 is the concentration needed to halve the response being measured. `c1ccc2nn(Cc3nc4cnc5ccccc5c4n3C3CCOCC3)cc2c1` [Example 45, 2-(2H-indazol-2-ylmethyl)-1-(tetrahydro-2H-pyran-4-yl)-1H-imidazo[4,5-c]quinoline]: the values for the IC50 (on mutant G2019S LRRK2; in assay [1]) were 52.9 nM and 61.1 nM, respectively.

In the case of `FC1(F)CCCCC1n1c(Cc2ccon2)nc2cnc3ccccc3c21` (centres unmarked) [Example 46, 1-(2,2-difluorocyclohexyl)-2-(1,2-oxazol-3-ylmethyl)-1H-imidazo[4,5-c]quinoline], the IC50 against mutant G2019S LRRK2 worked out at 90.8 nM; in assay [1], 186 nM.

With `CC1(C)CC(n2c(Cc3ccon3)nc3cnc4ccccc4c32)CCO1` (centres unmarked) [Example 47, 1-(2,2-dimethyltetrahydro-2H-pyran-4-yl)-2-(1,2-oxazol-3-ylmethyl)-1H-imidazo[4,5-c]quinoline], the half-inhibitory concentration (IC50) against mutant G2019S LRRK2 came to 80.6 nM; in assay [1], 103 nM.

For `FC1(F)CCC(n2c(Cc3ccon3)nc3cnc4ccccc4c32)CC1` [Example 48, 1-(4,4-difluorocyclohexyl)-2-(1,2-oxazol-3-ylmethyl)-1H-imidazo[4,5-c]quinoline], the half-inhibitory concentration (IC50) against mutant G2019S LRRK2 came to 118 nM; in assay [1] it was 194 nM.

As to `c1ccc2c(c1)ncc1nc(Cc3ccon3)n(C3CCCCC3)c12` [Example 50, 1-cyclohexyl-2-(1,2-oxazol-3-ylmethyl)-1H-imidazo[4,5-c]quinoline], the figures for the 50% inhibitory concentration (IC50) (against mutant G2019S LRRK2; in assay [1]) were 57.7 nM and 127 nM, respectively.

`Cc1nc(Cc2nc3cnc4ccc(Cl)cc4c3n2[C@H]2CCO[C@@H](C)C2)no1` [Example 51, 8-chloro-2-[(5-methyl-1,2,4-oxadiazol-3-yl)methyl]-1-[(2S,4S)-2-methyltetrahydro-2H-pyran-4-yl]-1H-imidazo[4,5-c]quinoline]: the IC50 against mutant G2019S LRRK2 is 49.3 nM; in assay [1] it was 109 nM. For the same molecule, the “LRRK2 potency compared to Example 5 (its enantiomer)” value in assay [1] (qualitative statement referring to Table 3 data) was “significantly less potent”.

Turning to `C[C@@H]1C[C@H](n2c(Cc3ccon3)nc3cnc4ccc(Cl)cc4c32)CCO1` [Example 52, 8-chloro-1-[(2R,4R)-2-methyltetrahydro-2H-pyran-4-yl]-2-(1,2-oxazol-3-ylmethyl)-1H-imidazo[4,5-c]quinoline], the values for the 50% inhibitory concentration (IC50) (against mutant G2019S LRRK2; in assay [1]) were 2.7 nM and 4.1 nM, respectively.

Regarding `C[C@@H]1C[C@H](n2c(Cc3cscn3)nc3cnc4ccc(Cl)cc4c32)CCO1` [Example 53, 8-chloro-1-[(2R,4R)-2-methyltetrahydro-2H-pyran-4-yl]-2-(1,3-thiazol-4-ylmethyl)-1H-imidazo[4,5-c]quinoline], the IC50 turned out to be 1.9 nM on mutant G2019S LRRK2 and 3.1 nM in assay [1].

Turning to `C[C@@H]1C[C@H](n2c(Cc3ccon3)nc3cnc4ccc(F)cc4c32)CCO1` [Example 54, 8-fluoro-1-[(2R,4R)-2-methyltetrahydro-2H-pyran-4-yl]-2-(1,2-oxazol-3-ylmethyl)-1H-imidazo[4,5-c]quinoline], the IC50 amounted to 8 nM at mutant G2019S LRRK2 and 8.8 nM in assay [1].

With `C[C@@H]1C[C@H](n2c(Cc3cscn3)nc3cnc4ccc(C#N)cc4c32)CCO1` [Example 57, 1-[(2R,4R)-2-methyltetrahydro-2H-pyran-4-yl]-2-(1,3-thiazol-4-ylmethyl)-1H-imidazo[4,5-c]quinoline-8-carbonitrile], the figures for the IC50 (at mutant G2019S LRRK2; in assay [1]) were 4 nM and 6.1 nM, respectively.

In the case of `C[C@@H]1C[C@H](n2c(Cc3ccon3)nc3cnc4ccc(Br)cc4c32)C[C@H](C)O1` [Example 59, 8-bromo-1-[(2R,4r,6S)-2,6-dimethyltetrahydro-2H-pyran-4-yl]-2-(1,2-oxazol-3-ylmethyl)-1H-imidazo[4,5-c]quinoline], the IC50 was 52 nM against mutant G2019S LRRK2 and 176 nM in assay [1].

On to `C[C@@H]1C[C@H](n2c(Cc3cscn3)nc3cnc4ccc(Br)cc4c32)C[C@H](C)O1` [Example 60], for which the concentration for half-maximal inhibition (IC50) against mutant G2019S LRRK2 was found to be 11.5 nM; in assay [1] it was 35.1 nM.

With `C[C@@H]1C[C@H](n2c(Cc3cscn3)nc3cnc4ccc(C#N)cc4c32)C[C@H](C)O1` [Example 61, 1-[(2R,4r,6S)-2,6-dimethyltetrahydro-2H-pyran-4-yl]-2-(1,3-thiazol-4-ylmethyl)-1H-imidazo[4,5-c]quinoline-8-carbonitrile], the results for the IC50 (against mutant G2019S LRRK2; in assay [1]) were 67.9 nM and 181 nM, respectively.

With `COc1ccc2ncc3nc(Cc4ccon4)n([C@@H]4CCO[C@H](C)C4)c3c2c1` [Example 62, 8-methoxy-1-[(2R,4R)-2-methyltetrahydro-2H-pyran-4-yl]-2-(1,2-oxazol-3-ylmethyl)-1H-imidazo[4,5-c]quinoline], the half-maximal inhibitory concentration (IC50) amounted to 12.8 nM on mutant G2019S LRRK2 and 41.9 nM in assay [1].

With `Clc1ccc2ncc3nc(Cc4ccon4)n(C4CCOCC4)c3c2c1` [Example 63, 8-chloro-2-(1,2-oxazol-3-ylmethyl)-1-(tetrahydro-2H-pyran-4-yl)-1H-imidazo[4,5-c]quinoline, formate salt], the results for the 50% inhibitory concentration (IC50) (against mutant G2019S LRRK2; in assay [1]) were 12.1 nM and 16.1 nM, respectively.

Consider `CC[C@@H]1C[C@H](n2c(Cc3ccon3)nc3cnc4ccc(C#N)cc4c32)CCO1` [Example 67, 1-[(2R,4R)-2-ethyltetrahydro-2H-pyran-4-yl]-2-(1,2-oxazol-3-ylmethyl)-1H-imidazo[4,5-c]quinoline-8-carbonitrile], for which the IC50 came out at 4 nM at mutant G2019S LRRK2 and 5.8 nM in assay [1].

Consider `C[C@@H]1C[C@H](n2c(Cc3ccon3)nc3cnc4cccnc4c32)CCO1` [Example 68, 1-[(2R,4R)-2-methyltetrahydro-2H-pyran-4-yl]-2-(1,2-oxazol-3-ylmethyl)-1H-imidazo[4,5-c][1,5]naphthyridine], for which the half-inhibitory concentration (IC50) against mutant G2019S LRRK2 is 19.2 nM; in assay [1], 23.6 nM.

Take `c1ccc2c(c1)ncc1nc(Cc3cn4ncsc4n3)n(C3CCOCC3)c12` [Example 69, 2-(imidazo[2,1-b][1,3,4]thiadiazol-6-ylmethyl)-1-(tetrahydro-2H-pyran-4-yl)-1H-imidazo[4,5-c]quinoline]: the IC50 at mutant G2019S LRRK2 stood at 82.4 nM; in assay [1], 78.2 nM.

Consider `COc1ccc(Cc2nc3cnc4ccc(F)cc4c3n2C2CCOC(C)(C)C2)nc1` (centres unmarked) [Example 70, 1-(2,2-dimethyltetrahydro-2H-pyran-4-yl)-8-fluoro-2-[(5-methoxypyridin-2-yl)methyl]-1H-imidazo[4,5-c]quinoline], for which the values for the half-maximal inhibitory concentration (IC50) (at mutant G2019S LRRK2; in assay [1]) were 66.5 nM and 77.7 nM, respectively.

Take `Clc1cn2cc(Cc3nc4cnc5ccccc5c4n3C3CCOCC3)nc2s1` [Example 71, 2-[(2-chloroimidazo[2,1-b][1,3]thiazol-6-yl)methyl]-1-(tetrahydro-2H-pyran-4-yl)-1H-imidazo[4,5-c]quinoline, trifluoroacetate salt]: the IC50 on mutant G2019S LRRK2 worked out at 120 nM; in assay [1] it was 106 nM.

For `CC1(C)CC(n2c(Cc3cscn3)nc3cnc4ccccc4c32)CCO1` (centres unmarked) [Example 72, 1-(2,2-dimethyltetrahydro-2H-pyran-4-yl)-2-(1,3-thiazol-4-ylmethyl)-1H-imidazo[4,5-c]quinoline, trifluoroacetate salt], the IC50 against mutant G2019S LRRK2 was determined as 170 nM; in assay [1] it was 156 nM.

Consider `CC1(C)CC(n2c(Cc3cn4ncsc4n3)nc3cnc4ccccc4c32)CCO1` (centres unmarked) [Example 73, 1-(2,2-dimethyltetrahydro-2H-pyran-4-yl)-2-(imidazo[2,1-b][1,3,4]thiadiazol-6-ylmethyl)-1H-imidazo[4,5-c]quinoline, trifluoroacetate salt], for which the IC50 on mutant G2019S LRRK2 turned out to be 98.4 nM; in assay [1] it was 76.3 nM.

As to `Fc1ccc2ncc3nc(Cn4cc(C(F)(F)F)nn4)n(C4CCOCC4)c3c2c1` [Example 74, 8-fluoro-1-(tetrahydro-2H-pyran-4-yl)-2-{[4-(trifluoromethyl)-1H-1,2,3-triazol-1-yl]methyl}-1H-imidazo[4,5-c]quinoline, trifluoroacetate salt], the half-inhibitory concentration (IC50) at mutant G2019S LRRK2 was 102 nM; in assay [1], 112 nM.

Regarding `Fc1ccc2ncc3nc(Cc4ccon4)n(C4CCOCC4)c3c2c1` [Example 75, 8-fluoro-2-(1,2-oxazol-3-ylmethyl)-1-(tetrahydro-2H-pyran-4-yl)-1H-imidazo[4,5-c]quinoline, trifluoroacetate salt], the values for the IC50 (against mutant G2019S LRRK2; in assay [1]) were 155 nM and 130 nM, respectively.

As to `Fc1ccc2ncc3nc(Cn4cc5ccccc5n4)n(C4CCOCC4)c3c2c1` [Example 76, 8-fluoro-2-(2H-indazol-2-ylmethyl)-1-(tetrahydro-2H-pyran-4-yl)-1H-imidazo[4,5-c]quinoline, trifluoroacetate salt], the concentration for half-maximal inhibition (IC50) came out at 54.5 nM against mutant G2019S LRRK2 and 67.5 nM in assay [1].

Turning to `Fc1ccc2ncc3nc(Cc4cscn4)n(C4CCOCC4)c3c2c1` [Example 77, 8-fluoro-1-(tetrahydro-2H-pyran-4-yl)-2-(1,3-thiazol-4-ylmethyl)-1H-imidazo[4,5-c]quinoline, trifluoroacetate salt], the half-maximal inhibitory concentration (IC50) against mutant G2019S LRRK2 came to 62.5 nM; in assay [1] it was 74.6 nM.

As to `Fc1ccc2ncc3nc(Cn4cc(C(F)(F)F)cn4)n(C4CCOCC4)c3c2c1` [Example 78, 8-fluoro-1-(tetrahydro-2H-pyran-4-yl)-2-{[4-(trifluoromethyl)-1H-pyrazol-1-yl]methyl}-1H-imidazo[4,5-c]quinoline, trifluoroacetate salt], the IC50 was 115 nM at mutant G2019S LRRK2 and 145 nM in assay [1].

Take `CC1(C)CC(n2c(Cn3cc(C4CC4)nn3)nc3cnc4ccc(F)cc4c32)CCO1` (centres unmarked) [Example 79, 2-[(4-cyclopropyl-1H-1,2,3-triazol-1-yl)methyl]-1-(2,2-dimethyltetrahydro-2H-pyran-4-yl)-8-fluoro-1H-imidazo[4,5-c]quinoline, trifluoroacetate salt]: the IC50 at mutant G2019S LRRK2 turned out to be 47.3 nM; in assay [1], 53.8 nM.

For `CC1(C)CC(n2c(Cc3cscn3)nc3cnc4ccc(F)cc4c32)CCO1` (centres unmarked) [Example 80, 1-(2,2-dimethyltetrahydro-2H-pyran-4-yl)-8-fluoro-2-(1,3-thiazol-4-ylmethyl)-1H-imidazo[4,5-c]quinoline, trifluoroacetate salt], the half-inhibitory concentration (IC50) on mutant G2019S LRRK2 amounted to 39.5 nM; in assay [1] it was 52.1 nM.
